Laboratory results reported in patent US5482954A, “Signal transduction inhibitor triazole and diazole compounds” (priority 1994, dated 1996).

How the values were obtained:
A2058 cells [1] = assay: Proliferation of A2058 cells (monolayer growth, crystal violet); assay type: cell-based, human
Experimental: (§1) For the clonogenic assay, aliquots of 50,000 cells per well (24 well plates) were grown under standard tissue culture conditions in the presence of increasing doses or test compound (0-10 μg/mL) or vehicle control. After 96 hr, the cells were gently washed with PBS, fixed, and stained with 0.5% crystal violet nuclear stain in 20% methanol. Excess stain was removed with tap water and bound stain was eluted with an equal volume solution of 01N sodium citrate (pH 4.2) and absolute ethanol. Optical density (O.D.) of eluted crystal violet stain was determined at 540 nm. The results of dose-dependent inhibition of tumor cell proliferation by compound 1 are shown in FIG. 5, in which the data are expressed as percent of untreated control cell proliferation for each cell type. The degree of inhibition varied with the cell type and was maximal (76%) for the A2058 cell line.
A2058 human melanoma cells were used to test the effect of compounds 1 and 3-25 on cellular proliferation. The cells were cultured in the presence of the test compounds (10 μM) for 96 hr. fixed and stained with crystal violet as described above. Growth inhibition was determined as a percent of control growth (using either DMSO or PEG-400 as the vehicle) for each compound. Each experiment was run a minimum of three times and the average of the results for each compound is provided in Table H and in FIGS. 20A and 20B.

A2058 cells [2] = assay: Colony formation (soft agar); assay type: cell-based, human
Experimental: (§2) Colony formation: Compound 1 was evaluated at three concentrations for inhibition of colony formation in both the A2058 and OVCAR3 cell lines. Colony number was determined in triplicate and compared to the vehicle control run on each 24 well plate to provide a percent. Colonies greater than 60 cells were counted at 100× under phase contrast. […] In a second study, selected compounds were evaluated for their effect on density-independent growth of the A2058 cell line in soft agar. Percent inhibition was determined over triplicate experiments involving three log molar concentrations of the test compound.

OVCAR3 cells [3] = assay: Laminin-stimulated cell motility; assay type: cell-based, human; conditions: 1 μg/mL, 18 hr preincubation; laminin 100 μg/mL
A2058 cells [4] = assay: Clonogenic (crystal violet) proliferation assay; assay type: cell-based, human; conditions: 0-10 μg/mL, 96 hr
Experimental: (§3) Proliferation: Two independent methods were used to determine the effect of various compounds on cellular proliferation. The first method utilized [^3 H]thymidine labelling and was performed using A2058, 5R, OVCAR3, and MDA-231 cells. Because the potential effect of compound 1 on thymidine metabolism was unknown, a clonogenic assay was also used. This assay utilized crystal violet nuclear staining.
as §1

OVCAR3 cells [5] = assay: Clonogenic (crystal violet) proliferation assay; assay type: cell-based, human; conditions: 0-10 μg/mL, 96 hr
Experimental: as §3, §1

MDA-231 cells [6] = assay: Clonogenic (crystal violet) proliferation assay; assay type: cell-based, human; conditions: 0-10 μg/mL, 96 hr
Experimental: as §3, §1

A2058 cells [7] = assay: [3H]thymidine incorporation; assay type: cell-based, human; conditions: 0-10 μg/mL, 24 hr
Experimental: as §3
(§4) For the thymidine incorporation assay, an initial aliquot of 15,000 cells was plated in 96 well plates. The cells were grown to subconfluence, serum-starved, then fed with serum-containing media to which incremental doses of compound 1 (0-10 μg/mL) were added. After 24 hr, the cells were pulsed with [^3 H]thymidine (0.5 μCi/well) for 2 hr. Trichloroacetic acid was added to precipitate […] [^3 H]thymidine. After removal, ice cold ethanol/diethyl ether was added to precipitate cellular nucleic acids. The residue was solubilized with 0.2M NaOH and [^3 H]thymidine incorporation was determined by liquid scintillation counting. Inhibition of thymidine uptake was calculated as a percent of untreated control cell incorporation of labelled thymidine. As FIG. 4 indicates, de novo DNA synthesis was inhibited in all of the tumor cell lines. Maximal inhibition (80%) was found with the 5R cells.

OVCAR3 cells [8] = assay: [3H]thymidine incorporation; assay type: cell-based, human; conditions: 0-10 μg/mL, 24 hr
Experimental: as §3, §4

MDA-231 cells [9] = assay: [3H]thymidine incorporation; assay type: cell-based, human; conditions: 0-10 μg/mL, 24 hr
Experimental: as §3, §4

OVCAR3 cells [10] = assay: Colony formation (soft agar); assay type: cell-based; conditions: Homo sapiens, OVCAR-3
Experimental: as §2

A2058 cells [11] = assay: Type IV collagen-stimulated motility; assay type: cell-based, human; conditions: data not shown
[12] = test system: SKBR human breast cancer cells; assay: AMF-stimulated cell motility; assay type: cell-based; conditions: overnight exposure; data not shown
[13] = test system: A2058 human melanoma cells; assay: AMF-stimulated cell motility; assay type: cell-based
Experimental: The cell motility assay has been described. See, Stracke et al., Biochem. Biophys. Res. Comm., 146:339-345 (1987). Cells from the A2058 human melanoma line which was maintained in subconfluent culture were harvested with trypsin-EDTA, and were allowed to recover for 1 hr at room temperature. Cells from the 5R H-ras transformed (diploid) rat embryo fibroblast line were harvested with 2 mM EDTA in PBS without divalent cations. Cells were resuspended in serum-free media containing 0.1% BSA. This DMEM/0.1% BSA was used as the control for all subsequent assays. The assays were performed in triplicate using a 48-well chemotaxis chamber with 8μ Nucleopore, type IV collagen-coated filters. The chambers were incubated at 37° C. for 4 hr, stained and placed onto glass slides with the original cell side up so that the cell pellet could be wiped from the surface. Cells that had migrated through the pores were trapped between glass and membrane and could be quantitated by laser densitometry.
Compound 1 was preincubated with the cells for various periods of time, added at the start of the assay, or added later. Additionally, compound 1 remained present during the motility assay. The cells were assayed for their motile response to AMF. AMF stimulates random and directed locomotion of 5R ras-transfected rat embryo fibroblasts and A2058 human melanoma cells. […] Cell viability determined by trypan blue exclusion averaged greater than 96%. Cells exposed to various concentrations of compound 1 were tested for their response to AMF vs. control. Percent stimulated motility (in densitometer units) is defined as: […]
(AMF stimulated-control)Compound 1 /(AMF stimulated-control)untreated

NC(=O)c1nnn(Cc2cc(Cl)c(C(=O)c3ccc(Cl)cc3)c(Cl)c2)c1N [Compound 1]
dose dependent inhibition of proliferation (A2058 cells [1]; FIG. 20A, monolayer growth): Dose dependent inhibition of proliferation | activity at 10 µM (A2058 cells [1]; Homo sapiens, A2058, Table H, 10 μM, 96 hr, read-out: GROWTH (% OF CONTROL)): 36.4 ± 6% | COLONY FORMATION (% OF CONTROL) (A2058 cells [2]; Table H, soft agar): 11.1 ± 5 % OF CONTROL | Colony Formation (% of Control) (A2058 cells [2]; Table K): 11.1 ± 5 % of Control | inhibition of colony formation (A2058 cells [2]; concentrations as low as 0.2 μM): significant inhibitory effects | inhibition of spontaneous and laminin-stimulated motility (OVCAR3 cells [3]): inhibited both spontaneous motility | maximal inhibition of tumor cell proliferation (A2058 cells [4]): 76% | inhibition of tumor cell proliferation (OVCAR3 cells [5]): dose dependent inhibition of tumor cell proliferation | inhibition of tumor cell proliferation (MDA-231 cells [6]): dose dependent inhibition of tumor cell proliferation | inhibition of de novo DNA synthesis (A2058 cells [7]): inhibited | inhibition of de novo DNA synthesis (OVCAR3 cells [8]): inhibited | inhibition of de novo DNA synthesis (MDA-231 cells [9]): inhibited | inhibition at 2 µM (OVCAR3 cells [10]): > 70% | motility due to type IV collagen stimulation (A2058 cells [11]): inhibited motility | motile response to AMF [12]: inhibited | inhibition of AMF-stimulated tumor cell motility ([13]; 0.03-10 μg/ml): inhibited AMF-stimulated tumor cell motility in a dose dependent manner | inhibition of motility, combination of 1 and PT vs either alone ([13]; 1 (1 μg/ml) + PT (0.1 μg/ml), data not shown, cell line not stated): did not result in greater inhibition of motility than either drug alone | decrease in stimulated motility ([13]; overnight preincubation, AMF stimulation): up to 55% | inhibition of motility ([13]; same dose as PI assay (1.0 μg/mL)): 45%
